Reference: PMC8868346, “Novel Series of Dual NRF2 Inducers and Selective MAO-B Inhibitors for the Treatment of Parkinson’s Disease” (Antioxidants, 2022)
Read-outs that look alike come from different tables or passages of the source.

Assays:
[1] = Blood–brain barrier permeation assay (PAMPA); settings: for PAMPA Prediction: BBB permeability class from Pe
Method: (§7) Briefly, permeability of the compounds was measured at an initial concentration of 100 µM, including positive and negative controls (Supplementary Data; Table S3). […] After 5 min, 180 µL of each compound solution in PBS (10 mM, pH 7.4) was added to determine their ability to pass the membrane (VD). The 96-well acceptor plate (Multiscreen, Millipore Corp., Madrid Spain) was loaded with 180 µL of PBS (VA). Then, the donor filter plate was carefully placed on the acceptor plate to form a sandwich-like system, which was left undisturbed for 4 h at room temperature. After incubation, the donor plate was removed and the absorbance at the maximum absorption wavelength for each compound was recorded in both the acceptor and donor wells (150 µL/well) using a UV plate reader SPECTROstar Nano (BMG Labtech, Ortenberg, Germany). Concentration of the compounds in the donor and acceptor plates and equilibrium concentration were calculated and expressed as permeability (Pe) according the Equation (1). Results are expressed as mean ± standard error of the mean (SEM) of at least three different experiments in duplicate:(1) logPe =log{C×−ln(1−[drug]acceptor/[drug]equilibrium)} where C=(VD×VA/(VD +VA)×Area×Time) .

[2] = system: AREc32; settings: MTT reduction
Method: AREc32 cells, shared by CR Wolf, were grown in Dulbecco’s modified Eagle medium (DMEM) with GlutaMAX (Gibco, Invitrogen, Madrid, Spain), supplemented with 10% (v/v) filtrated fetal bovine serum (FBS; Gibco, Invitrogen, Madrid, Spain), 1% of antibiotics penicillin-streptomycin, and geneticin (0.8 mg/mL G418; Gibco, Invitrogen, Madrid, Spain). […] They were recovered by centrifugation at 800 rpm for 10 min. Cells were used from the third to twelfth passage.
(§1) Basal absorbance was set to 100% and results were normalized to basal conditions.
(§2) Cytotoxicity. LD50 values in several cell cultures employed
(§3) Table S2. Cytotoxicity elicited by 10-18 compounds in SH-SY5Y, AREc32 and mixed pr imary glial cultures. Viability was measured as MTT reduction in presence of increasing concentrations of der ivatives. LD50 values were calcula ted from dose-response curves. Data are expr essed as mean ± SEM of at least 3 independent experiments.
(§4) 1.3. PAMPA control compounds (BBB permeability)
(§5) Table S3. Pr ediction of the BBB passive permeability of control compounds

[3] = system: SH-SY5Y cells; assay: Neuroprotection in SH-SY5Y against rotenone/oligomycin A (MTT); assay type: cell-based, human; settings: compound 0.1 µM, 24 h pre- and 24 h co-incubation
Method: (§6) Cells were seeded at a density of 60,000 cells/well in 96-well transparent plates for 24 h. Then cells were pre-incubated with the corresponding compound at 0.1 μM. After 24 h, the medium was removed and replaced with 1% (v/v) FBS media containing the corresponding compound at 0.1 µM and the selected toxic stimuli, namely a mixture of rotenone and oligomycin A (R/O; 30/10 μM, respectively; Sigma–Aldrich, Spain) or 6-hydroxydopamine (100 µM; Sigma–Aldrich, Spain). […].

[4] = system: SH-SY5Y; settings: MTT reduction
Method: They were recovered by centrifugation at 800 rpm for 10 min. Cells from the third to twelfth passage were seeded at a density of 80,000 cells/well in 96-well plates for the neuroprotection studies.
as §1, §2, §3, §4, §5

[5] = system: SH-SY5Y cells; assay: Neuroprotection in SH-SY5Y against 6-hydroxydopamine (MTT); assay type: cell-based, human; settings: 6-OHDA 100 µM; compound 0.1 µM, 24 h pre- and 24 h co-incubation
Method: as §6

[6] = target: T1, MAO-B (Homo sapiens, UniProt P27338); assay: MAO-B reversibility assay (pre-incubation times); assay type: biochemical; settings: 0, 15, 30 min pre-incubation at […] IC50
T1 construct: purchased Sigma–Aldrich
T1 sequence (P27338 1-520): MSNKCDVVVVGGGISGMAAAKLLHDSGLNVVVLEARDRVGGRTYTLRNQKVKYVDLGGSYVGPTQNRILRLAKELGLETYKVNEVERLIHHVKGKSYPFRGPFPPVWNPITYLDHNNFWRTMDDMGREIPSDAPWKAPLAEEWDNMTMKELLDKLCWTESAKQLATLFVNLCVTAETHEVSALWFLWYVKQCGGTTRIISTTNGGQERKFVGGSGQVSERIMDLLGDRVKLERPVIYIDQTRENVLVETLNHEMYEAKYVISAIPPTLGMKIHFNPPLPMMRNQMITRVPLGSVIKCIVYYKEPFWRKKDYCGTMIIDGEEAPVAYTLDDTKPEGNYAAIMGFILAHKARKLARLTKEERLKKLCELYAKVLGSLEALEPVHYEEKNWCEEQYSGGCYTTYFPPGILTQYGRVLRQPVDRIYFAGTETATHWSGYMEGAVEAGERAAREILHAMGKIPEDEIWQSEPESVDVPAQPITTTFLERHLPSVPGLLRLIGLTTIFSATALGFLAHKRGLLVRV

[7] = system: NRF2; assay: NRF2 induction, luciferase activity in AREc32 reporter cells; assay type: cell-based, human; settings: for fold potentiation of NRF2 induction compared to the corresponding -OMe derivative: 11, 12 vs 10, 14, 15 vs 13; for EC50: Homo sapiens, read-out: CD (µM) NRF2 Induction; for EC50 / CD (µM) NRF2 Induction: AREc32 cells, 24 h, concentration required to double luciferase activity compared to basal
Method: Cells were used from the third to twelfth passage.
AREc32 cells were stably transfected with the plasmid pGL-8xARE that implements 8 copies of the antioxidant response element (ARE) sequences followed by luciferase reporter gen. Therefore, NRF2 induction can be related to the activation of ARE sequences by measuring luciferase activity in terms of luminescence production. For NRF2 induction experiments, cells were plated in 96 white flat bottom well plates (20,000 cells/well). After 24 h, cells were incubated with selected compounds at the desired concentrations in duplicates for 24 h. The Luciferase Assay System (Promega E1500) was used according to provider protocol and luminescence was quantified in an Orion II microplate luminometer (Berthold, Germany). Fold induction of luciferase activity was normalized to basal conditions. Data were expressed as CD values, which means the concentration needed to duplicate the luciferase activity compared to basal conditions. CD values were calculated from dose–response curves fitted by non-linear regression for each compound after logarithmic transformation of the data using GraphPad Prism 8.0 software.

[8] = system: blood-brain barrier (passive diffusion); assay: in vitro; settings: PAMPA, pH 7.4
Method: as §7

[9] = system: Mixed primary glial cultures; assay: Cytotoxicity in mixed primary glial cultures (MTT); settings: MTT reduction
Method: Mixed primary glial cultures were obtained from cerebral cortex of 2–5-day-old Sprague–Dawley rats. Blood vessels and meninges were first removed in Hank’s balanced salt solution (HBSS) and then forebrains were dissociated in DMEM/F12 medium. After mechanical dissociation, filtering, and centrifugation at 800 rpm for 10 min, cells were plated at a density of 30,000 cells/well in DMEM/F12 medium with 20% (v/v) FBS and 1% penicillin/streptomycin (10,000 units). […] After 5 days, medium was substituted by DMEM/F12 medium with 10% (v/v) FBS. Cells were cultured for 7–10 days before treatment.
as §1, §2, §3, §4, §5

[10] = target: T2, hrMAO-A (Homo sapiens, UniProt P21397); assay: Inhibition of monoamine oxidase A (Amplex UltraRed, tyramine); assay type: biochemical
T2 construct: purchased Sigma–Aldrich
T2 sequence (P21397 1-527): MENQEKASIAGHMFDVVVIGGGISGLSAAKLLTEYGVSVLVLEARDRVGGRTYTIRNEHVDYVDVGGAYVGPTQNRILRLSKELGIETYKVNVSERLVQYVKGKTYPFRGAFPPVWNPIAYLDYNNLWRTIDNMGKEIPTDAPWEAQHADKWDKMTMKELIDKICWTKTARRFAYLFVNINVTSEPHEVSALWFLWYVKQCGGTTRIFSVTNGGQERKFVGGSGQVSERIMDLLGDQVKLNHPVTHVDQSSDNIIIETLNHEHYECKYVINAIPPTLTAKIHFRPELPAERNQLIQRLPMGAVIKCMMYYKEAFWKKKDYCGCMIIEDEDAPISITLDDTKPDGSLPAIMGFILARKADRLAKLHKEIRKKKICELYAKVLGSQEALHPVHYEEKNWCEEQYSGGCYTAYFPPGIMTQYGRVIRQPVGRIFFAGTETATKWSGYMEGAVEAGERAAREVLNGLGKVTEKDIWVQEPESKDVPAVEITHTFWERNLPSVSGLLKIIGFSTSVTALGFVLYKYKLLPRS

[11] = target: T3, hrMAO-B (Homo sapiens, UniProt P27338); assay: Inhibition of monoamine oxidase B (Amplex UltraRed, tyramine); assay type: biochemical; settings: for Selectivity Index (MAO-A/MAO-B): ratio IC50 MAO-A/IC50 MAO-B
T3 construct: purchased Sigma–Aldrich
T3 sequence (P27338 1-520): T1 sequence (P27338 1-520)

[12] = system: blood-brain barrier (passive diffusion); assay: Blood–brain barrier permeation assay (PAMPA); settings: PAMPA, pH 7.4
Method: as §7

[13] = Oxygen radical absorbance capacity (ORAC) assay; settings: Trolox equivalents; AAPH, fluorescein
Method: The ORAC test was performed to evaluate the oxygen free radical scavenger capacity of the compounds. […] Compounds at desired concentrations (0.03, 0.1, 0.3, 1, 3, and 10 µM) were diluted in phosphate-buffered saline (PBS; 10 mM, pH 7.4) at 37 °C and placed in a 96 black flat bottom well plate. […] A fluorescence measurement was done first to determine the basal signal. Then, 25 µL of 2, 2′-azobis-amidinopropane dihydrochloride (AAPH) (12 mM final concentration) was quickly added. All samples were measured in duplicates in three different experiments. […] Results were expressed in terms of Trolox equivalents (T.eq.), obtained by plotting net AUC versus compound concentration, then performing linear regression and normalizing slopes of the compounds considering Trolox as reference.

[14] = 30 min pre-incubation, 37 °C, read-out: IC50 MAO-A
[15] = 30 min pre-incubation, 37 °C, read-out: IC50 MAO-B

| SMILES | PAMPA Prediction [1] | LD50 (µM) AREc32 [2] [µM] | R/O (30/10 µM) Protection (%) [3] [%] | LD50 (µM) SH-SY5Y [4] [µM] | 6-OHDA Protection (%) [5] | MAO-B inhibition reversibility [6] | fold potentiation of NRF2 induction compared to the corresponding -OMe derivative [7] [fold] | EC50 [7] [µM] | Papp [8] [×10⁻⁶ cm/s] | LD50 (µM) Mixed primary glial cultures [9] [µM] | IC50 [10] [µM] | IC50 [11] [µM] | Papp at 4 h, 100 µM [12] [×10⁻⁶ cm/s] | PAMPA Pe (10^−6 cm s^−1) ([1]; 100 µM, porcine brain lipid, 4 h, PBS pH 7.4) | IC50 [10, 14] [µM] | IC50 [11, 15] [µM] | ORAC (T. eq.) [13] [T. eq.] | MAO isozyme selectivity ([11]; MAO-B vs MAO-A) | Selectivity Index (MAO-A/MAO-B) [11] | CD (µM) NRF2 Induction [7] |
| --- | --- | --- | --- | --- | --- | --- | --- | --- | --- | --- | --- | --- | --- | --- | --- | --- | --- | --- | --- | --- |
| Cn1c(=O)c2c(ncn2C)n(C)c1=O [Caffeine, reference compound] | CNS - |  |  |  |  |  |  |  |  |  |  |  |  |  |  |  |  |  |  |  |
| C#CCNCCc1c[nH]c2ccc(OC(=O)C=Cc3ccccc3)cc12 [Compound 11, 3-(2-(Prop-2-yn-1-ylamino)ethyl)-1H-indol-5-yl Cinnamate] | CNS + (CNS + (high BBB permeability): Pe (10^−6 cm s^−1) > 4.0) | 7.83 ± 1.2 | 48.6 | 16.4 ± 2.32 | absence of protection | reversible inhibition | 7 | 1.8 ± 0.28 | 5.08 ± 1.7 | 17.8 ± 2.9 | 43.8 ± 6.5 | 3 ± 0.21 |  |  |  |  |  |  |  |  |
| C#CCNCCc1c[nH]c2ccc(OC(=O)/C=C/c3ccc(C)cc3)cc12 [Compound 12, 3-(2-(Prop-2-yn-1-ylamino)ethyl)-1H-indol-5-yl-(E)-3-(p-tolyl)acrylate] | CNS − (CNS—(low BBB permeability): Pe (10^−6 cm s^−1) < 2.0) | 11.1 ± 2.0 | 53.5 | 11.6 ± 0.90 | absence of protection |  | 10 | 2.99 ± 0.26 |  | 7.42 ± 1.3 |  |  | 1.84 ± 0.48 | low Pe value | 59.1 ± 6 | 3.03 ± 0.27 |  |  |  |  |
| C#CC(=O)NCCc1c[nH]c2ccc(OC)cc12 [Compound 16, N-(2-(5-Methoxy-1H-indol-3-yl)ethyl) Propiolamide] | CNS + (CNS + (high BBB permeability): Pe (10^−6 cm s^−1) > 4.0) |  | 47.3 | 4.87 ± 0.60 | 48.1% |  |  | 1.35 ± 0.12 |  | 8.81 ± 2.2 |  |  | 6.64 ± 1.3 |  | > 100 | > 100 | 2.67 ± 0.14 | not active | at least 2 |  |
| C#CC(=O)NCCc1c[nH]c2ccc(OC(=O)C=Cc3ccccc3)cc12 [Compound 17, 3-(2-Propiolamidoethyl)-1H-indol-5-yl Cinnamate] |  | < 1 | 49.3 | 9.06 ± 0.31 | 58.4% | reversible inhibition |  |  |  |  |  |  | 3.12 ± 1.2 |  | > 100 | 50 ± 2.9 | 2.27 ± 0.08 |  |  | no activity |
| C#CC(=O)NCCc1c[nH]c2ccc(OC(=O)/C=C/c3ccc(C)cc3)cc12 [Compound 18, 3-(2-Propiolamidoethyl)-1H-indol-5-yl-(E)-3-(p-tolyl) Acrylate] |  | < 1 | 32.1 |  | 43.8% |  |  |  |  | 1.21 ± 0.24 |  |  | 2.04 ± 3.2 |  | 81.9 ± 5.4 | 13.9 ± 1.2 | 1.42 ± 0.13 |  | 5.89 | no activity |
| CC(C)(C)c1cc(O)ccc1O [TBHQ, Tert-Butylhydroquinone, reference compound] |  |  |  |  |  |  |  | 1.82 ± 0.09 |  |  |  |  |  |  |  |  |  |  |  |  |
